Laboratory results: patent publication US20160287554A1, “Small Molecule Metal-Activated Protein Inhibition” (University of South Florida, priority 2015, published 2016)
Several values for one entry are separate records, joined by “and”; a condition that tells them apart may be missing. Equal values may be shown once.

Target: 20S proteasome (Homo sapiens, UniProt P28074)
Test: 20S proteasome chymotrypsin-like activity assay, cleavage of suc-leu-leu-val-tyr-AMC (fluorescence), with or without copper chloride
Assay type: biochemical
Details: for inhibition against the proteasome: one-dose experiments, 10 μM compound in the presence of 1 μM copper
Source text: Pro-drug compounds, according to embodiments of the invention, include: 3,4-dihydroxybenzoic acid; galloflavin; 2-{[(carbamoylsulfanyl)acetyl]amino}benzoic acid; 6,7-Dihydroxycoumaranone; 3,6-bis(hydroxymethyl)pyridazin-4(1H)-one; and 4′,5,7-trihydroxyisoflavone, as shown in FIG. 1. These compounds, and analogs thereof, can act individually or can be used in combination. These compounds, and similar compounds, are capable of binding copper ions and facilitating inhibition of the proteasome. These compounds, and similar compounds, are safe and efficacious theranostics and/or drugs to detect and/or treat cancers. These compounds are from the NCI Diversity Set 3. Preliminary identification of these compounds as potential Cu-complexes with the proteasome was conducted using an in silico screening method, according to an embodiment of the invention, for example, with graphic representations of the calculated docking of the pro-drugs of FIG. 1 with copper ion and the proteasome, as shown in FIGS. 2-7. The modeling method indicates the potential of candidates as the pro-drugs, which are tested experimentally to confirm their efficiency using an in vitro experimental assay that tests for inhibition of the chymotrypsin-like activity of the 20S proteasome.
A Beckman Coulter Biomek FX^P Lab Automation Workstation was used for automating the assays. A Perkin Elmer EnVision 2102 multilabel plate reader was used to read the plates by fluorescence measurements. Assays were performed in 384 well black Nunc plates. Each compound (2 μl in DMSO), when tested without copper chloride was added to 28 μl of buffer (50 mM Tris at pH 7.6 and 37° C.), with 20 μM, 10 μl 20S proteasome and 10 μl of suc-leu-leu-val-tyr-AMC as the substrate (purchased from Boston Biochem), and the rate of substrate cleavage by 20S proteasome activity was determined. In the presence of copper, the buffer amount was decreased to 25 μl and 3 μl copper chloride was used for chelation with the compound for testing in the presence of copper. To allow chelation of copper to the compound, the plate was allowed to sit for 40 minutes with gentle shaking. The overall volume per well was held at 50 μL. The compounds and substrate were initially dissolved in 100% DMSO, but the final concentration of DMSO per well plate was reduced to less than 2% following subsequent dilutions. Plates were incubated at 37° C. for 2 hours. For dose response curves, the concentrations of copper chloride and a pro-drug compound, were varied to get optimal activity. The plates were read with 340 nm excitation and 460 nm emission using the plate reader. All liquid transfers to the plates were automated using the Biomek workstation.

[1] = NSC 37408 0.01 uM, CuCl2 0.01 uM
[2] = NSC 37408 0.01 uM, CuCl2 0.05 uM
[3] = NSC 37408 0.01 uM, CuCl2 0.1 uM
[4] = NSC 37408 0.01 uM, CuCl2 0.5 uM
[5] = NSC 37408 0.02 uM, CuCl2 0.01 uM
[6] = NSC 37408 0.02 uM, CuCl2 0.05 uM
[7] = NSC 37408 0.02 uM, CuCl2 0.1 uM
[8] = NSC 37408 0.02 uM, CuCl2 0.5 uM
[9] = NSC 37408 0.2 uM, CuCl2 0.01 uM
[10] = NSC 37408 0.2 uM, CuCl2 0.05 uM
[11] = CuCl2 0.01 uM alone (NSC 37408 0 uM)
[12] = CuCl2 0.05 uM alone (NSC 37408 0 uM)
[13] = CuCl2 0.1 uM alone (NSC 37408 0 uM)
[14] = CuCl2 0.5 uM alone (NSC 37408 0 uM)
[15] = CuCl2 1 uM alone (NSC 37408 0 uM)
[16] = CuCl2 10 uM alone (NSC 37408 0 uM)

6,7-dihydroxycoumaranone [NSC 37408]
% Activity (NSC 37408 0.01 uM, CuCl2 0 uM): 112.6213% and 99.65% | Average % inhibition (NSC 37408 0.01 uM, CuCl2 0 uM): −6.135% | % Activity [1]: 90.87% and 88.81% | Average % inhibition [1]: 10.1605% | % Activity [2]: 86.05% and 85.2009% | Average % inhibition [2]: 14.38% | % Activity [3]: 72.84% and 76.28% | Average % inhibition [3]: 25.44% | % Activity [4]: 54.66% and 61.76% | Average % inhibition [4]: 41.79% | % Activity (NSC 37408 0.01 uM, CuCl2 1 uM): 44.58% and 55.7695% | Average % inhibition (NSC 37408 0.01 uM, CuCl2 1 uM): 49.82% | % Activity (NSC 37408 0.01 uM, CuCl2 10 uM): 19.49% and 20.5% | Average % inhibition (NSC 37408 0.01 uM, CuCl2 10 uM): 80.0042% | % Activity (NSC 37408 0.02 uM, CuCl2 0 uM): 96.06% and 94.02% | Average % inhibition (NSC 37408 0.02 uM, CuCl2 0 uM): 4.963% | % Activity [5]: 88.1% and 90.5198% | Average % inhibition [5]: 10.69% | % Activity [6]: 68.1% and 55.31% | Average % inhibition [6]: 38.29% | % Activity [7]: 65.88% and 61.48% | Average % inhibition [7]: 36.32% | % Activity [8]: 51.0064% and 59.2161% | Average % inhibition [8]: 44.89% | % Activity (NSC 37408 0.02 uM, CuCl2 1 uM): 56.05% and 43.65% | Average % inhibition (NSC 37408 0.02 uM, CuCl2 1 uM): 50.1481% | % Activity (NSC 37408 0.02 uM, CuCl2 10 uM): 17.83% and 17.5873% | Average % inhibition (NSC 37408 0.02 uM, CuCl2 10 uM): 82.29% | % Activity (NSC 37408 0.2 uM, CuCl2 0 uM): 105.3933% and 82.75% | Average % inhibition (NSC 37408 0.2 uM, CuCl2 0 uM): 5.927% | % Activity [9]: 94.36% and 76.52% | Average % inhibition [9]: 14.5582% | % Activity [10]: 85.2901% and 82.94% | Average % inhibition [10]: 15.89% | % Activity (NSC 37408 0.2 uM, CuCl2 0.1 uM): 73.85% and 60.05% | Average % inhibition (NSC 37408 0.2 uM, CuCl2 0.1 uM): 33.05% | % Activity (NSC 37408 0.2 uM, CuCl2 0.5 uM): 64.18% and 61.99% | Average % inhibition (NSC 37408 0.2 uM, CuCl2 0.5 uM): 36.91% | % Activity (NSC 37408 0.2 uM, CuCl2 1 uM): 56.85% and 54.95% | Average % inhibition (NSC 37408 0.2 uM, CuCl2 1 uM): 44.1% | % Activity (NSC 37408 0.2 uM, CuCl2 10 uM): 19.46% and 18.13% | Average % inhibition (NSC 37408 0.2 uM, CuCl2 10 uM): 81.2011% | % Activity (NSC 37408 1 uM, CuCl2 0 uM): 103.1804% and 90.54% | Average % inhibition (NSC 37408 1 uM, CuCl2 0 uM): 3.138% | % Activity (NSC 37408 1 uM, CuCl2 0.01 uM): 72.59% and 75.01% | Average % inhibition (NSC 37408 1 uM, CuCl2 0.01 uM): 26.2% | % Activity (NSC 37408 1 uM, CuCl2 0.05 uM): 66.45% and 67.81% | Average % inhibition (NSC 37408 1 uM, CuCl2 0.05 uM): 32.87% | % Activity (NSC 37408 1 uM, CuCl2 0.1 uM): 65.45% and 59.72% | Average % inhibition (NSC 37408 1 uM, CuCl2 0.1 uM): 37.4167% | % Activity (NSC 37408 1 uM, CuCl2 0.5 uM): 56.12% and 54.11% | Average % inhibition (NSC 37408 1 uM, CuCl2 0.5 uM): 44.88% | % Activity (NSC 37408 1 uM, CuCl2 1 uM): 57.76% and 41.6248% | Average % inhibition (NSC 37408 1 uM, CuCl2 1 uM): 50.31% | % Activity (NSC 37408 1 uM, CuCl2 10 uM): 14.11% and 16.23% | Average % inhibition (NSC 37408 1 uM, CuCl2 10 uM): 84.83% | % Activity (NSC 37408 2 uM, CuCl2 0 uM): 97.24% and 74.12% | Average % inhibition (NSC 37408 2 uM, CuCl2 0 uM): 14.32% | % Activity (NSC 37408 2 uM, CuCl2 0.01 uM): 87.55% and 75.89% | Average % inhibition (NSC 37408 2 uM, CuCl2 0.01 uM): 18.28% | % Activity (NSC 37408 2 uM, CuCl2 0.05 uM): 61.5% and 61.91% | Average % inhibition (NSC 37408 2 uM, CuCl2 0.05 uM): 38.3% | % Activity (NSC 37408 2 uM, CuCl2 0.1 uM): 62.98% and 55.45% | Average % inhibition (NSC 37408 2 uM, CuCl2 0.1 uM): 40.79% | % Activity (NSC 37408 2 uM, CuCl2 0.5 uM): 50.79% and 47.45% | Average % inhibition (NSC 37408 2 uM, CuCl2 0.5 uM): 50.8784% | % Activity (NSC 37408 2 uM, CuCl2 1 uM): 41.16% and 35.42% | Average % inhibition (NSC 37408 2 uM, CuCl2 1 uM): 61.71% | % Activity (NSC 37408 2 uM, CuCl2 10 uM): 15.32% and 15.04% | Average % inhibition (NSC 37408 2 uM, CuCl2 10 uM): 84.82% | % Activity (NSC 37408 20 uM, CuCl2 0 uM): 99.79% and 91.1158% | Average % inhibition (NSC 37408 20 uM, CuCl2 0 uM): 4.548% | % Activity (NSC 37408 20 uM, CuCl2 0.01 uM): 71.91% and 89.68% | Average % inhibition (NSC 37408 20 uM, CuCl2 0.01 uM): 19.21% | % Activity (NSC 37408 20 uM, CuCl2 0.05 uM): 54.92% and 76.06% | Average % inhibition (NSC 37408 20 uM, CuCl2 0.05 uM): 34.51% | % Activity (NSC 37408 20 uM, CuCl2 0.1 uM): 49.04% and 30.46% | Average % inhibition (NSC 37408 20 uM, CuCl2 0.1 uM): 60.25% | % Activity (NSC 37408 20 uM, CuCl2 0.5 uM): 36.6% and 25.36% | Average % inhibition (NSC 37408 20 uM, CuCl2 0.5 uM): 69.02% | % Activity (NSC 37408 20 uM, CuCl2 1 uM): 25.4789% and 22.77% | Average % inhibition (NSC 37408 20 uM, CuCl2 1 uM): 75.88% | % Activity (NSC 37408 20 uM, CuCl2 10 uM): 7.426% and 7.089% | Average % inhibition (NSC 37408 20 uM, CuCl2 10 uM): 92.74% | IC50 (dose-response assay, in presence of 100 nM copper (FIG. 13)): 3000 nM | capacity to inhibit the proteasome compared with copper chloride alone (first round of screening (Table 1), compound complexed with copper): better capacity to inhibit the proteasome than copper chloride alone | inhibition against the proteasome: superior inhibition | percent inhibition in the presence of copper versus compound alone (sub-micromolar copper, triplicate (FIG. 13)): dramatic improvement of percent inhibition | inhibition in the absence of copper ion (various concentrations, no copper (FIG. 10)): little if any inhibition

[Cl][Cu][Cl] [CuCl2, copper chloride, reference compound]
% Activity [11]: 116.1267% and 79.27% | Average % inhibition [11]: 2.302% | % Activity [12]: 92.35% and 88.54% | Average % inhibition [12]: 9.555% | % Activity [13]: 82.9012% and 74.33% | Average % inhibition [13]: 21.39% | % Activity [14]: 50.13% and 54.8853% | Average % inhibition [14]: 47.49% | % Activity [15]: 65.79% and 56.9% | Average % inhibition [15]: 38.65% | % Activity [16]: 21.19% and 16.25% | Average % inhibition [16]: 81.28% | EC50 (copper chloride alone, dose response (FIG. 11), read-out: EC50 of inhibitory effect on the % activity of the proteasome): 686 nM | inhibitory activity of copper absent the pro-drug (sub-micromolar copper concentration (FIG. 13)): no significant inhibitory activity

NC(=O)SCC(=O)Nc1ccccc1C(=O)O [compound 13345, 2-{[(carbamoylsulfanyl)acetyl]amino}benzoic acid]
inhibition against the proteasome: superior inhibition

O=C(O)c1ccc(O)c(O)c1 [compound 16631, 3,4-dihydroxybenzoic acid]
inhibition against the proteasome: superior inhibition

O=c1c(-c2ccc(O)cc2)coc2cc(O)cc(O)c12 [compound 36586, 4′,5,7-trihydroxyisoflavone]
inhibition against the proteasome: superior inhibition

O=c1oc2c(cc1O)oc(=O)c1cc(O)c(O)c(O)c12 [compound 107022, galloflavin]
inhibition against the proteasome: superior inhibition

O=c1cc(CO)[nH]nc1CO [compound 166900, 3,6-bis(hydroxymethyl)pyridazin-4(1H)-one]
inhibition against the proteasome: superior inhibition
